Measurements: patent US6987110B2, “Substituted pyrrolines as kinase inhibitors” (Janssen Pharmaceutica N.V., priority 2002, dated 2006)

Assays:
Type in all cases: biochemical
[1] = molecular target: PKC isoform α (Homo sapiens, UniProt P17252); test: Protein Kinase C histone-based assay, PKC α; conditions: histone III substrate, 30 μM ATP; error approximately within ±30 percent; read-out: PKC Activity, Alpha (IC50, Histone Based Assay)
Protocol: (§1) Compounds were evaluated for PKC selectivity using histone III as the substrate. The PKC isoforms α, β-II or γ were added to a reaction mixture that contained 20 mM HEPES, (pH 7.4), 940 μM CaCl2, 10 mM MgCl2, 1 mM EGTA. 100 μg/mL phosphatidylserine, 20 μg/mL diacylglycerol, 30 μM ATP, 1 μCi (^33P)ATP and 200 μg/mL histone III. The reaction was incubated for 10 min at 30° C. Reactions were terminated by TCA precipitation and spotting on Whatman P81 filters. Filters were washed in 75 mM phosphoric acid and the radioactivity quantified by liquid scintillation counting.

[2] = molecular target: PKC isoform β-II (Homo sapiens, UniProt P05771); test: Protein Kinase C histone-based assay, PKC β-II; conditions: histone III substrate, 30 μM ATP; error approximately within ±30 percent; read-out: PKC Activity, Beta II (IC50, Histone Based Assay)
Protocol: as §1

[3] = molecular target: T1, recombinant rabbit GSK-3β (Oryctolagus cuniculus, UniProt G1T8E2); test: Glycogen Synthase Kinase-3 assay (PPI-2 phosphorylation); conditions: for IC50: PPI-2 substrate, 33P-ATP, 90 minutes at 30° C.
T1 construct: purchased New England Biolabs
Protocol: Compounds were tested for the ability to inhibit recombinant rabbit GSK-3β using the following protocol. The test compound was added to a reaction mixture containing Protein phosphatase inhibitor-2 (PPI-2) (Calbiochem) (45 ng), rabbit GSK-3β (New England Biolabs) (0.75 units) and ^33P-ATP (1 μCi) in 50 mM Tris-HCl (pH 8.0), 10 mM MgCl2, 0.1% BSA, 1 mM DTT and 100 μM Sodium Vanadate. The mixture was reacted for 90 minutes at 30° C. to allow phosphorylation of the PPI-2 protein and then the protein in the reaction was precipitated using 10% TCA. The precipitated protein was collected on filter plates (MultiScreen-DV/Millipore), which were subsequently washed. Finally, the radioactivity was quantified using a TopCount Scintillation Counter (Packard). […] Staurosporine or Valproate, known inhibitors of GSK-3β, were used as a positive control for screening.

[4] = molecular target: PKC isoform γ (Homo sapiens, UniProt P05129); test: Protein Kinase C histone-based assay, PKC γ; conditions: histone III substrate, 30 μM ATP; error approximately within ±30 percent; read-out: PKC Activity, Gamma (IC50, Histone Based Assay)
Protocol: as §1

T1 sequence (G1T8E2 1-432): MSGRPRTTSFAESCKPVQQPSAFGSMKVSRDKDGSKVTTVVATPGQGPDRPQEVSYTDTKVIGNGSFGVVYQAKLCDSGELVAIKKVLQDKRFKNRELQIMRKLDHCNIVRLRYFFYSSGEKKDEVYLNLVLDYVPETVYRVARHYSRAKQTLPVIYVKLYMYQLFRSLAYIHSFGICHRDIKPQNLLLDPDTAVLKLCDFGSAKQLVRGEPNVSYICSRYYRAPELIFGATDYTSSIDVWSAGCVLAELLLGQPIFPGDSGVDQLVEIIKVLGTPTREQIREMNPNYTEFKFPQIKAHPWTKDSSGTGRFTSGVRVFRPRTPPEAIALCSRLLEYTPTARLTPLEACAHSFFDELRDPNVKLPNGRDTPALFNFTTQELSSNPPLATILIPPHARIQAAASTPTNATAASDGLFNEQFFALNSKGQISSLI
PKC isoform β-II, sequence (P05771 1-673 isoform P05771-2): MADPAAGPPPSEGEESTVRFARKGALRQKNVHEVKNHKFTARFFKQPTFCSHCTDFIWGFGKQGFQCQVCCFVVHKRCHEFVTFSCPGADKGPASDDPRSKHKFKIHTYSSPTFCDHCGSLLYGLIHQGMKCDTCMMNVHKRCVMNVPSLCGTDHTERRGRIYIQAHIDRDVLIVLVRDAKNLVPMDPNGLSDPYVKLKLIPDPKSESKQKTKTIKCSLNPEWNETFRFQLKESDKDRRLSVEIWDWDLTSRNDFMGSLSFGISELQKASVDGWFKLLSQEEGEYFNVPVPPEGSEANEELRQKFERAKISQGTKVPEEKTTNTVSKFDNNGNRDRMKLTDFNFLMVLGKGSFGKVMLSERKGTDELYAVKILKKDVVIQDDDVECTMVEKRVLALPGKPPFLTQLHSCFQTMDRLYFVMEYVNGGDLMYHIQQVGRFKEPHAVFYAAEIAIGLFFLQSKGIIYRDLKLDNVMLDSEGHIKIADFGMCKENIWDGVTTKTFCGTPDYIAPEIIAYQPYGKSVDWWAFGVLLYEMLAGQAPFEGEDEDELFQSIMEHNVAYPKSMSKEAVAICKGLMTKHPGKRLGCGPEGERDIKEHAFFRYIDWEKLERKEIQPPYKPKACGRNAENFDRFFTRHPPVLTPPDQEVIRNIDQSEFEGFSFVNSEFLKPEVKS

| SMILES | IC50 [1] | IC50 [2] | IC50 [3] | IC50 [4] | GSK-3β Assay Activity, percent at a single concentration ([3]; @ 1 μM) |
| --- | --- | --- | --- | --- | --- |
| O=C1NC(=O)C(c2cn(-c3cccnc3)c3ccccc23)=C1c1cn(CCO)c2ccccc12 [Compound 1, 3-[1-(2-hydroxyethyl)-1H-indol-3-yl]-4-[1-(3-pyridinyl)-1H-indol-3-yl]-1H-pyrrole-2,5-dione] | 64 nM | 6 nM | 25 nM | 274 nM |  |
| O=C1NC(=O)C(c2cn(-c3cncnc3)c3ccccc23)=C1c1cn(CCO)c2ccccc12 [Compound 2, 3-[1-(2-hydroxyethyl)-1H-indol-3-yl]-4-[1-(5-pyrimidinyl)-1H-indol-3-yl]-1H-pyrrole-2,5-dione] | 228 nM | 15 nM | 8 nM | 429 nM |  |
| O=C1NC(=O)C(c2cn(-c3cnc4ccccc4c3)c3ccccc23)=C1c1cn(CCO)c2ccccc12 [Compound 3, 3-[1-(2-hydroxyethyl)-1H-indol-3-yl]-4-[1-(3-quinolinyl)-1H-indol-3-yl]-1H-pyrrole-2,5-dione] | 457 nM | 23 nM | 31 nM | 784 nM |  |
| O=C1NC(=O)C(c2cn(-c3cccnc3)c3ccccc23)=C1c1cn(CCCO)c2ccccc12 [Compound 4, 3-[1-(3-hydroxypropyl)-1H-indol-3-yl]-4-[1-(3-pyridinyl)-1H-indol-3-yl]-1H-pyrrole-2,5-dione] |  |  | 24 nM |  |  |
| CN(C)CCCn1cc(C2=C(c3cn(-c4csc5ccccc45)c4ccccc34)C(=O)NC2=O)c2ccccc21 [Compound 5, 3-(1-benzo[b]thien-3-yl-1H-indol-3-yl)-4-[1-[3-(dimethylamino)propyl]-1H-indol-3-yl]-1H-pyrrole-2,5-dione] |  |  |  |  | 53% @ 1 μM |
| CN(C)CCCn1cc(C2=C(c3cn(-c4ccccc4)c4ccccc34)C(=O)NC2=O)c2ccccc21 [Compound 6, 3-[1-[3-(dimethylamino)propyl]-1H-indol-3-yl]-4-(1-phenyl-1H-indol-3-yl)-1H-pyrrole-2,5-dione] | 58 nM | 23 nM |  |  |  |
| Cn1cc(C2=C(c3cn(-c4cncnc4)c4ccccc34)C(=O)NC2=O)c2ccccc21 [Compound 7, 3-(1-methyl-1H-indol-3-yl)-4-[1-(5-pyrimidinyl)-1H-indol-3-yl]-1H-pyrrole-2,5-dione] |  |  | 30 nM |  |  |
| Cn1cc(C2=C(c3cn(-c4cccnc4)c4ccccc34)C(=O)NC2=O)c2ccccc21 [Compound 8, 3-(1-methyl-1H-indol-3-yl)-4-[1-(3-pyridinyl)-1H-indol-3-yl]-1H-pyrrole-2,5-dione] |  |  | 100 nM |  |  |
| O=C1NC(=O)C(c2cn(-c3cccnc3)c3ccccc23)=C1c1cn(CCn2ncnn2)c2ccccc12 [Compound 9, 3-[1-(3-pyridinyl)-1H-indol-3-yl]-4-[1-[2-(2H-tetrazol-2-yl)ethyl]-1H-indol-3-yl]-1H-pyrrole-2,5-dione] | 910 nM | 54 nM | 7 nM | 4950 nM |  |
| O=C1NC(=O)C(c2cn(-c3cccnc3)c3ccccc23)=C1c1cn(CCn2cnnn2)c2ccccc12 [Compound 10, 3-[1-(3-pyridinyl)-1H-indol-3-yl]-4-[1-[2-(1H-tetrazol-1-yl)ethyl]-1H-indol-3-yl]-1H-pyrrole-2,5-dione] | 1010 nM | 123 nM | 17 nM | 4570 nM |  |
| O=C1NC(=O)C(c2cn(-c3cncnc3)c3ccccc23)=C1c1cn(-c2cccnc2)c2ccccc12 [Compound 11, 3-[1-(3-pyridinyl)-1H-indol-3-yl]-4-[1-(5-pyrimidinyl)-1H-indol-3-yl]-1H-pyrrole-2,5-dione] | 3040 nM | 60 nM | 116 nM | 1440 nM |  |
